Laboratory results from patent publication US5705693A, “Cationic lipids” (Gilead Sciences, Inc., priority 1995, dated 1998).

Experiments:
[1] = tested on: T antigen; test: Antisense inhibition of T antigen expression in CV-1 cells with ODN2A (Example 19); format: cell-based, African green monkey
Description: ODN2A, which was ODN2 lacking the fluorescent label at the 3' terminus, was used as an antisense oligonucleotide to inhibit T antigen expression in CV-1 cells using the protocol previously described (Wagner Science (1993) 260:1510-1513). CV-1 cells were transfected for 18 hours using 5 μg of 34 (1:1 molar ratio with DOPE colipid) and then cell nuclei were microinjected with T antigen plasmid using a needle concentration of 0.003 μg/mL of T antigen plasmid (ibid at page 1513, first column, note 5) and 0.025 μg/mL of β-galactosidase plasmid. The cells were scored for T antigen expression 4.5 hours after removing the transfection preparation from the cells. The cells were immunostained for β-galactosidase expression as an internal control for microinjected cells and the proportion of cells expressing both T antigen and β-galactosidase was determined.

[2] = tested on: MCF7 cells; test: Transfection of MCF7 cells with ODN1 using 34 (Example 12); format: cell-based, human; conditions: 6 h, 1:1 DOPE
Description: (§1) Preparation of lipid-nucleic acid complexes and cell transfection.
(§2) SK-BR-3, Caco-2, Caov-3 and MCF7 cells were transfected with ODN1 using 34 which was prepared as described in Example 5 using a 1:1 molar ratio of DOPE colipid. The sonicated lipid-colipid mixture (1 mL of a 2.5, 5 or 10 μg/mL suspension) was mixed with 250 pmole ODN1 and allowed to stand […] at room temperature […] before adding 1 mL of the lipid-ODN1 complex to the cells. The lipid-ODN1 complex was removed from the cells after 6 hours by washing the cells twice in PBS, followed by observing the cells in serum-containing medium immediately after removing the lipid-ODN1 complex.

[3] = Transfection of Caco-2 cells with ODN1 using 34 (Example 12); format: cell-based, human; conditions: human, caco-2 cells; Caco-2, 5.0 μg lipid; read-out: toxicity
Description: as §1, §2

[4] = tested on: Caco-2 cells; test: as above; format: cell-based, human; conditions: 6 h, 1:1 DOPE
Description: as §1, §2

[5] = tested on: cells; test: Amount of fluorescently labeled oligonucleotide delivered versus commercially available lipids; format: cell-based; conditions: observed fluorescence intensity, estimated
Text: The difference in transfection efficiency between lipids described herein and commercially available lipids is usually most pronounced when the transfections are done in the presence of medium containing serum. The amount of polyanion delivered into cells was estimated to be about 2- to 100-fold greater for lipids 30, 34 and 35 based on the observed fluorescence intensity of transfected cells after transfection using a fluorescently labeled oligonucleotide. The cationic lipids described herein also transfect some cell types that are not detectably transfected by commercial lipids, particularly where the transfection is conducted in the presence of serum.

[6] = tested on: CV-1 cells; test: Transfection of CV-1 cells with CAT RNA (Example 16); format: cell-based, African green monkey; conditions: 2.5 μg RNA, 5 μg lipid, 24 h, DMEM 10% FBS or Optimem
Description: CV-1 cells were transfected for 24 hours with RNA encoding chloramphenicol acetyltransferase (CAT). The transfections used 2.5 μg of RNA, 5 μg of 34 and DMEM with 10% FBS or Optimem™ with no serum. CAT activity was measured by immunofluorescence staining using fluorescent labeled anti-CATantibodies (5',3'Inc.). The cells were observed as previously described (Wagner, Science (1993) 260:1510).

[7] = tested on: cells; test: Transfection with filtered preparations; format: cell-based; conditions: 1:1 DOPE, sonicated
Description: The invention cationic lipids 30 or 34 and DOPE colipid (1:1) were prepared by sonication and then filtered using 200, 100 or 50 nm filters to obtain particles less than about 200 nm in diameter, less than about 100 nm and less than about 50 nm. […] The 50 nm filtered preparations were about 40-50% as efficient as the preparations containing larger particles. The size of the particles or miscelles in a given preparation will vary depending on the preparation method. Sonicating cationic lipid-colipid mixtures will provide smaller miscelles and vortexing will provide larger miscelles (Felgner J. Biol. Chem. (1994) 269:2550-2561). Such miscelles are believed to transfer the polyanion into the cytoplasm of a eukaryotic or prokaryotic cell by pinocytosis, endocytosis and/or by direct fusion with the plasma membrane.

[8] = tested on: Caov-3 cells; test: Transfection of Caov-3 cells with ODN1 using 34 (Example 12); format: cell-based, human; conditions: 6 h, 1:1 DOPE
Description: as §1, §2

[9] = as above; format: cell-based, human; conditions: human, caov-3 cells; Caov-3, 10.0 μg lipid; read-out: toxicity
Description: as §1, §2

[10] = tested on: SK-BR-3 cells; test: Transfection of SK-BR-3 cells with ODN1 using 34 (Example 12); format: cell-based, human; conditions: 6 h, 1:1 DOPE
Description: as §1, §2

[11] = tested on: cdc-2 kinase; test: cdc-2 antisense oligonucleotide analog transfection, Western blot (Example 22); format: cell-based, African green monkey; conditions: 30 nM cdc-2 antisense oligonucleotide analog, 2.5 and 5.0 μg lipid
Text: The oligonucleotide contained 5-(1-propynyl)cytosine in place of cytosine and 5-(1-propynyl)uracil in place of uracil. A control oligonucleotide analog having a mismatched base sequence was also used to check for any non-specific effect on cdc-2 kinase levels in the transfected cells caused by the oligonucleotide analog. A control containing only lipid was also used as a control. […] Protein levels were examined by Western blot analysis.

[12] = tested on: CV-1 cells; test: Transfection of CV-1 cells with ODN1 and toxicity (Example 22); format: cell-based, African green monkey; conditions: for % cells transfected: 2:1 DOPE, 6 h, 10% FBS, 250 pmole ODN1
Description: (§3) Lipids 35, 52, 54 and 55 were each prepared using a 2:1 lipid:DOPE molar ratio as follows. Two molar equivalents of each lipid in CHCl3 and one equivalent of DOPE in CHCl3 was dried under reduced pressure by rotovap at room temperature. Deionized water was then added to give 1 mg/mL of total lipid. 10 mL of water containing 10 mg of lipid was vortexed for 5 minutes in a 100 mL round bottom flask. 2 mL aliquots were then used to prepare lipid suspensions for complexing with ODN1. Each preparation was obtained by 6 cycles of freezing on dry ice and thawing in a 37° C. water bath.

[13] = as above; format: cell-based, African green monkey; conditions: monkey, cv-1 cells; 10.0 μg lipid
Description: as §3

[14] = tested on: CV-1 cells; test: Transfection of CV-1 cells with five 35:DOPE preparations (Example 20); format: cell-based, African green monkey; conditions: 35:DOPE 2:1, 1 μg lipid, 6 h, 10% FBS; in words
Description: Lipid complexes consisting of 35:DOPE (2:1 molar ratio) were prepared as follows. Two molar equivalents of 35 in CHCl3 and one equivalent of DOPE in CHCl3 was dried under reduced pressure by rotovap at room temperature. Deionized water was then added to give 1 mg/mL of total lipid. 10 mL of water containing 10 mg of lipid was vortexed for 5 minutes in a 100 mL round bottom flask. 2 mL aliquots were then used to prepare lipid suspensions for complexing with ODN1. The first preparation was obtained by directly using the vortexed 2 mL aliquot to prepare complexes with ODN1. The second preparation was obtained by 6 cycles of freezing on dry ice and thawing in a 37° C. water bath (Baxter, Dura Bath). The third preparation was obtained by placing a culture tube containing the lipid into a Ultra Sonik 100 (NEY) sonicator and the preparation was sonicated for 30 minutes at room temperature using the probe tip at maximum power. The fourth preparation was obtained by 6 cycles of freezing on dry ice and thawing in a 37° C. water bath, followed by filtering the suspension through a Lipofast™ 100 nm filter according to the manufacturer's instructions to obtain complexes less than about 100 nm in diameter. The fifth preparation was obtained by sonication for 10 minutes in a sonication bath followed by 5 sonication pulses for 15 seconds each with a probe sonicator (Sonifier 250, Branson Ultrasonics). […]

## CCCCCCCCCCCCCCCCCCN(CCCCCCCCCCCCCCCCCC)C(=O)CNC(=O)[C@@H](N)CCCNC(=N)NC(=O)OC(C)(C)C [Compound 34]
[1]; 5 μg, 1:1 DOPE, 18 h, ODN2A needed to inhibit T antigen expression to an equal extent
  efficiency in delivering ODN2A into cells compared with Lipofectin: about 10 fold
[1]; in words
  delivery of antisense oligomer: efficiently delivered the antisense oligomer into the cells without interfering with the capacity of the oligonucleotide to inhibit gene (protein) expression
[2]; MCF7, 2.5 μg lipid
  % transfected: 30-50%
[2]; MCF7, 5.0 μg lipid
  % transfected: 83%
[2]; MCF7, 10.0 μg lipid
  % transfected: 80%
[3]
  cytotoxicity at 6 h: < 10%
[4]; Caco-2, 2.5 μg lipid
  % transfected: < 5%
[4]; Caco-2, 5.0 μg lipid
  % transfected: 10-15%
[4]; Caco-2, 10.0 μg lipid
  % transfected: 0%
[5]
  amount of polyanion delivered into cells relative to commercially available lipids: 2- to 100 fold
[6]
  cells expressing CAT: 1-2%
[7]; 50 nm filter
  transfection efficiency of 50 nm filtered preparations relative to larger particles: 40-50%
[7]; in words
  transfection efficiency of 200 nm or 100 nm filtered preparations: the most efficient (and equally efficient)
[8]; Caov-3, 2.5 μg lipid
  % transfected: 20%
[8]; Caov-3, 5.0 μg lipid
  % transfected: 20%
[8]; Caov-3, 10.0 μg lipid
  % transfected: 61%
[9]
  cytotoxicity at 6 h: < 10%
[10]; SK-BR-3, 2.5 μg lipid
  % transfected: 60-70%
[10]; SK-BR-3, 5.0 μg lipid
  % transfected: > 90%
[10]; SK-BR-3, 10.0 μg lipid
  % transfected: > 90%

## CCCCCCCCCCCCCCN(CCCCCCCCCCCCCC)C(=O)CNC(=O)[C@@H](N)CCCNC(=N)NC(=O)OC(C)(C)C [Compound 35]
[11]
  cdc-2 protein levels: efficiently reduced cdc-2 protein levels
[12]; 1 μg lipid
  % cells transfected: 40%
[12]; 2.5 μg lipid
  % cells transfected: 85%
[12]; 5.0 μg lipid
  % cells transfected: 100%
[12]; 10.0 μg lipid
  % cells transfected: 60%
[12]; footnote, in words
  uniformity of cell staining: relatively uniformly stained
[13]
  cytotoxicity at 6 h: > 40%
[5]
  amount of polyanion delivered into cells relative to commercially available lipids: 2- to 100 fold
[14]
  transfection of CV-1 cells, all preparations: efficiently transfected CV-1 cells
